The results in this text go back to patent publication US8063048B2, “Acetylenyl-pyrazolo-pyrimidine derivatives” (Hoffmann-La Roche Inc., priority 2005, dated 2011).

Molecule `O=S(=O)(O)c1cnc(C#Cc2cnn3c(C(F)(F)F)cc(-c4ccc(C(F)(F)F)cc4)nc23)s1` [Example 20, 2-[7-Trifluoromethyl-5-(4-trifluoromethyl-phenyl)-pyrazolo[1,5-a]pyrimidin-3-ylethynyl]-thiazole-5-sulfonic acid] had a melting point above 295 °C.
Then `Nc1ncc(C#Cc2cnn3c(C(F)(F)F)cc(-c4ccc(Cl)cc4)nc23)cc1C(F)(F)F` [Example 223, 5-[5-(4-Chloro-phenyl)-7-trifluoromethyl-pyrazolo[1,5-a]pyrimidin-3-ylethynyl]-3-trifluoromethyl-pyridin-2-ylamine], with 209 °C; and `FC(F)(F)c1ccc(-c2cc(C(F)(F)F)c3ncc(C#Cc4cccnc4)n3c2)cc1` [Example 190, 3-Pyridin-3-ylethynyl-8-trifluoromethyl-6-(4-trifluoromethyl-phenyl)-imidazo[1,2-a]pyridine], with 169 to 170 °C; and `NS(=O)(=O)c1cc(C#Cc2cnn3c(C(F)(F)F)cc(-c4ccc(Cl)cc4)nc23)c(F)cc1F` [Example 96, 5-[5-(4-Chloro-phenyl)-7-trifluoromethyl-pyrazolo[1,5-a]pyrimidin-3-ylethynyl]-2,4-difluoro-benzenesulfonamide], with 292 to 293 °C.
As for `NS(=O)(=O)c1cc(C#Cc2ncn3c(C(F)(F)F)cc(-c4ccc(C(F)(F)F)cc4)nc23)c(F)cc1F` [Example 177, 2,4-Difluoro-5-[4-trifluoromethyl-2-(4-trifluoromethyl-phenyl)-imidazo[1,5-a]pyrimidin-8-ylethynyl]-benzenesulfonamide], the melting point was 247 °C.
Then `Cc1cc(-c2cc(C(F)F)n3ncc(C#Cc4cccc(S(N)(=O)=O)c4)c3n2)ccc1Cl` [Example 168, 3-[5-(4-Chloro-3-methyl-phenyl)-7-difluoromethyl-pyrazolo[1,5-a]pyrimidin-3-ylethynyl]-benzenesulfonamide], with 215 °C; and `Nc1ncc(C#Cc2ncn3c(C(F)(F)F)cc(-c4ccc(C(F)(F)F)cc4)nc23)cn1` [Example 285, 5-[4-Trifluoromethyl-2-(4-trifluoromethyl-phenyl)-imidazo[1,5-a]pyrimidin-8-ylethynyl]-pyrimidin-2-ylamine], with 294 °C; and `NS(=O)(=O)c1cc(C#Cc2cnn3c(C(F)F)cc(-c4cccc(C(F)(F)F)c4)nc23)c(F)cc1F` [Example 166, 5-[7-Difluoromethyl-5-(3-trifluoromethyl-phenyl)-pyrazolo[1,5-a]pyrimidin-3-ylethynyl]-2,4-difluoro-benzenesulfonamide], with 277 °C.
Then `NS(=O)(=O)c1cccc(C#Cc2cnn3c(C4CC4)cc(-c4ccc(Cl)c(Cl)c4)nc23)c1` [Example 87, 3-[7-Cyclopropyl-5-(3,4-dichloro-phenyl)-pyrazolo[1,5-a]pyrimidin-3-ylethynyl]-benzenesulfonamide], with 200 to 202 °C; and `CN(C)CCNS(=O)(=O)c1ccc(C#Cc2cnn3c(C(F)F)cc(-c4ccc(C(F)(F)F)cc4)nc23)s1` [Example 253, 5-[7-Difluoromethyl-5-(4-trifluoromethyl-phenyl)-pyrazolo[1,5-a]pyrimidin-3-ylethynyl]-thiophene-2-sulfonic acid (2-dimethylamino-ethyl)-amide], with 132 °C.
Then `CN(C)CCNS(=O)(=O)c1cccc(C#Cc2cnn3c(C(F)F)cc(-c4ccc(C(F)(F)F)cc4)nc23)c1` [Example 148, 3-[7-Difluoromethyl-5-(4-trifluoromethyl-phenyl)-pyrazolo[1,5-a]pyrimidin-3-ylethynyl]-N-(2-dimethylamino-ethyl)-benzenesulfonamide], with 160 to 162 °C; and `Cc1cc(-c2cc(C(F)(F)F)n3ncc(C#Cc4cccnc4)c3n2)ccc1Cl` [Example 101, 5-(4-Chloro-3-methyl-phenyl)-3-pyridin-3-ylethynyl-7-trifluoromethyl-pyrazolo[1,5-a]pyrimidine], with 196 °C; and `Nc1ccc(C#Cc2cnn3c(C(F)(F)F)cc(-c4ccc(C(F)(F)F)cc4)cc23)cn1` [Example 235, 5-[7-Trifluoromethyl-5-(4-trifluoromethyl-phenyl)-pyrazolo[1,5-a]pyridin-3-ylethynyl]-pyridin-2-ylamine], with 243 to 245 °C.
As for `Nc1ccc(C#Cc2cnn3c(C(F)F)cc(-c4ccc(C(F)(F)F)cc4)nc23)cn1` [Example 188, 5-[7-Difluoromethyl-5-(4-trifluoromethyl-phenyl)-pyrazolo[1,5-a]pyrimidin-3-ylethynyl]-pyridin-2-ylamine], the melting point came out at 216 °C.
The same measure for `Cc1ccc(C#Cc2cnn3c(C(F)F)cc(-c4ccc(C(F)(F)F)cc4)nc23)cc1S(=O)(=O)NCCO` [Example 61, 5-[7-Difluoromethyl-5-(4-trifluoromethyl-phenyl)-pyrazolo[1,5-a]pyrimidin-3-ylethynyl]-N-(2-hydroxy-ethyl)-2-methyl-benzenesulfonamide]: 184 to 186 °C.
Then `NS(=O)(=O)c1ccc(C#Cc2cnn3c(C4CC4)cc(-c4ccc(Cl)cc4)nc23)cc1` [Example 63, 4-[5-(4-Chloro-phenyl)-7-cyclopropyl-pyrazolo[1,5-a]pyrimidin-3-ylethynyl]-benzenesulfonamide], with 225 to 228 °C.
`O=S(=O)(c1ccc(C#Cc2cnn3c(C(F)(F)F)cc(-c4cccc(C(F)(F)F)c4)nc23)s1)N1CCNCC1` [Example 261, 3-[5-(piperazine-1-sulfonyl)-thiophen-2-ylethynyl]-7-trifluoromethyl-5-(3-trifluoromethyl-phenyl)-pyrazolo[1,5-a]pyrimidine] displayed a melting point of 160 °C.
The same measure for `CN1CCN(S(=O)(=O)c2ccc(C#Cc3cnn4c(C(F)F)cc(-c5ccc(C(F)(F)F)cc5)nc34)s2)CC1` [Example 252, 7-Difluoromethyl-3-[5-(4-methyl-piperazine-1-sulfonyl)-thiophen-2-ylethynyl]-5-(4-trifluoromethyl-phenyl)-pyrazolo[1,5-a]pyrimidine]: 226 °C; for `O=S(=O)(NCCO)c1cccc(C#Cc2cnn3c(C(F)(F)F)cc(-c4ccc(C(F)(F)F)cc4)nc23)c1` [Example 132, N-(2-Hydroxy-ethyl)-3-[7-trifluoromethyl-5-(4-trifluoromethyl-phenyl)-pyrazolo[1,5-a]pyrimidin-3-ylethynyl]-benzenesulfonamide]: 213 °C.
Molecule `FC(F)(F)c1ccc(-c2cc(C(F)(F)F)n3cnc(C#Cc4cccnc4)c3n2)cc1` [Example 268, 8-Pyridin-3-ylethynyl-4-trifluoromethyl-2-(4-trifluoromethyl-phenyl)-imidazo[1,5-a]pyrimidine] registered a melting point of 199 °C.
Then `CN(C)S(=O)(=O)c1ccc(C#Cc2cnn3c(C(F)F)cc(-c4ccc(C(F)(F)F)cc4)nc23)cc1` [Example 136, 4-[7-Difluoromethyl-5-(4-trifluoromethyl-phenyl)-pyrazolo[1,5-a]pyrimidin-3-ylethynyl]-N,N-dimethyl-benzenesulfonamide], with 211 to 212 °C.
The same measure for `CNC(=O)c1ccc(C#Cc2cnn3c(C4CC4)cc(-c4ccc(Cl)cc4)nc23)cc1` [Example 306, 4-[5-(4-Chloro-phenyl)-7-cyclopropyl-pyrazolo[1,5-a]pyrimidin-3-ylethynyl]-N-methyl-benzamide]: 214 to 216 °C; for `Cc1cc(-c2cc(C(F)(F)F)n3ncc(C#Cc4ncc(S(N)(=O)=O)s4)c3n2)ccc1Cl` [Example 104, 2-[5-(4-Chloro-3-methyl-phenyl)-7-trifluoromethyl-pyrazolo[1,5-a]pyrimidin-3-ylethynyl]-thiazole-5-sulfonic acid amide]: 123 °C; for `Nc1ccc(C#Cc2cnn3c(C(F)(F)F)cc(-c4ccc(C(F)(F)F)cc4)nc23)nn1` [Example 246, 6-[7-Trifluoromethyl-5-(4-trifluoromethyl-phenyl)-pyrazolo[1,5-a]pyrimidin-3-ylethynyl]-pyridazin-3-ylamine]: 214 to 216 °C.
The same measure for `N#Cc1cc(C#Cc2cnn3c(C(F)(F)F)cc(-c4ccc(C(F)(F)F)cc4)nc23)cnc1N` [Example 219, 2-Amino-5-[7-trifluoromethyl-5-(4-trifluoromethyl-phenyl)-pyrazolo[1,5-a]pyrimidin-3-ylethynyl]-nicotinonitrile]: 264 °C; for `O=S(=O)(Nc1ccncc1)c1ccc(C#Cc2cnn3c(C(F)(F)F)cc(-c4ccc(C(F)(F)F)cc4)nc23)s1` [Example 280, 5-[7-Trifluoromethyl-5-(4-trifluoromethyl-phenyl)-pyrazolo[1,5-a]pyrimidin-3-ylethynyl]-thiophene-2-sulfonic acid pyridin-4-ylamide]: 209 °C; for `CN(C)CCNS(=O)(=O)c1cccc(C#Cc2cnn3c(C(F)(F)F)cc(-c4ccc(C(F)(F)F)cc4)nc23)c1` [Example 133, N-(2-Dimethylamino-ethyl)-3-[7-trifluoromethyl-5-(4-trifluoromethyl-phenyl)-pyrazolo[1,5-a]pyrimidin-3-ylethynyl]-benzenesulfonamide]: 146 to 147 °C.
With `NS(=O)(=O)c1ccc(C#Cc2cnn3c(C(F)F)cc(-c4ccc(C(F)(F)F)cc4)nc23)s1` [Example 164, 5-[7-Difluoromethyl-5-(4-trifluoromethyl-phenyl)-pyrazolo[1,5-a]pyrimidin-3-ylethynyl]-thiophene-2-sulfonic acid amide], the melting point was 210 °C.
The same measure for `Cc1cc(-c2cc(C(F)(F)F)n3ncc(C#Cc4ccc(S(N)(=O)=O)s4)c3n2)ccc1Cl` [Example 114, 5-[5-(4-Chloro-3-methyl-phenyl)-7-trifluoromethyl-pyrazolo[1,5-a]pyrimidin-3-ylethynyl]-thiophene-2-sulfonic acid amide]: 216 °C; for `CC(C)(CO)NS(=O)(=O)c1cccc(C#Cc2cnn3c(C(F)(F)F)cc(-c4ccc(C(F)(F)F)cc4)nc23)c1` [Example 4, N-(2-Hydroxy-1,1-dimethyl-ethyl)-3-[7-trifluoromethyl-5-(4-trifluoromethyl-phenyl)-pyrazolo[1,5-a]pyrimidin-3-ylethynyl]-benzenesulfonamide]: 201 to 204 °C.

Usually melting point stands for the temperature, or range, at which the solid turns liquid.
